# Experimental data taken from US20090048155A1 (priority 2007, published 2009).
# Key:
# Y. pestis CO99pgm- [1] = test system: Y. pestis CO99pgm-; parameters: species or system Sprague-Dawley rats; conditions: rat, in vivo
# Y. pestis CO99pgm- [2] = test system: Y. pestis CO99pgm-; parameters: species or system Sprague-Dawley rats; conditions: rat, in vivo; remark: listed apart in the source
compound,measurement,setting,value
"O=C(O)c1cn(C2CC2)c2cc(N3CCNCC3)c(F)cc2c1=O [Cipro, ciprofloxacin]",6-day survival rate,Y. pestis CO99pgm- [1],100%
same,Median Survival Time,Y. pestis CO99pgm- [1],84 h
same,Survival,Y. pestis CO99pgm- [1],28%
same,leukocyte infiltration index (LII),Y. pestis CO99pgm- [2],did not significantly improve
same,lung edema,Y. pestis CO99pgm- [2],did not significantly improve
same,lung scores (combined interstitial and alveolar edema and hemorrhage and LII scores),Y. pestis CO99pgm- [2],did not significantly improve
